Reference: PubChem BioAssay AID2647 (Sanford-Burnham Center for Chemical Genomics, 2010)

System: MDA-MB-435/MDR TRAIL potentiation, ATPlite luminescence, 24 h
Assay: PubChem AID 2647

CSc1nc(-c2ccc(C)cc2)nc(C(Cl)Cl)n1 was tested, and the cytotoxicity with TRAIL (at 10 µM (top of the series)) was 84% and the cytotoxicity (compound alone without TRAIL, at 10 µM, stronger effect = higher value) was 1%.
